EC50 data for 8 molecules are collected here from patent US6277831A, “1,4-benzothiazepine-1,1-dioxide derivatives substituted by sugar residues, process for their preparation, pharmaceuticals comprising these compounds, and their use” (Aventis Pharma Deutschland GmbH, priority 1999, dated 2001).

In the assay the test system is bile acid transport in the ileum. Put plainly: Ileum perfusion test: inhibition of bile acid (3H-taurocholic acid) transport in the ileum of anesthetized rats. Type of assay: in vivo, Male Wistar rats. The note with it: rat ileum perfusion; 3 mM taurocholic acid, pH 7.4, 37° C.; 3H-TCA in bile at 80-90 min vs 30-40 min; diastereomeric mixtures unless indicated otherwise. The protocol: The biological testing of compounds according to the invention was carried out by means of a perfusion test. This test investigates the action of the compounds on the bile acid transport in the ileum. The diastereomeric mixtures of the compounds were tested unless indicated otherwise.
The Perfusion Test was Carried Out as Described Below:
Male Wistar rats (weight range 250-350 g) were anesthetized with urethane (1.5 g/kg i.p.) and the bile duct was cannulated with a polyethylene tube. Eight centimeters proximal to the ileocecal flap, an incision was made into the ileum and a silicone adapter for tubes was sewn in. A second incision with implantation of a corresponding silicone adapter was made in the cecum. Silicone tubes were attached to the adapter in order to perfuse the ileum in an orthograde and open manner (nonrecirculating) with perfusion buffer at a perfusion rate of 1 ml/min.
The perfusion tubes were filled with perfusion buffer (137 mM NaCl, 0.9 mM CaCl2, 0.51 mM MgCl2, 8.1 mM Na2 HPO4, 2.7 mM KCl, 1.47 mM KH2 PO4) (pH 7.4), 1% (v/v) ethanol, and 1% DMSO. The perfusion buffer contained the test compounds in concentrations as indicated, or the vehicle alone. The buffer was preheated to 37° C. The perfusion buffer contained 3 mM taurocholic acid (TCA), which in turn was labeled with 1000 dpm/μl of ^3 H TCA as a marker.
Study Design and Evaluation of the Results
An experimental batch was chosen which allowed the determination of the inhibition of bile acid transport in the individual animal. The bile was collected at 10 min intervals over a period of 90 min (in the case of a following wash-out phase for testing the reversibility over a period of up to 160 min). The perfusion of the vehicle-containing buffer solution over a period of 40 min (pre-test substance) was followed by a perfusion with perfusion buffer which contained the test compound in the concentration to be tested (to 90 min).
For the calculation of the percentage inhibition by the test compound, the dpms (disintegrations per min of ^3 H-TCA) in the bile from 80-90 min (end of the perfusion with the test substance) were related to the collection period 30-40 min during the preliminary phase, when the excretion of the ^3 H-TCA in the control phase had reached its maximum and plateau. The EC50 (=effective concentration 50) was calculated as the effective concentration between the inhibitory values of different concentrations which inhibited the maximum bile acid excretion by 50%.

In general, EC50 refers to the concentration that produces a half-maximal response. With `CCCCC1(CC)CS(=O)(=O)c2ccc(N(C)C)cc2C(c2cccc(NC(=O)CCCCCCCCCCNC(=O)[C@H](O)[C@@H](O)[C@H](O)[C@H](O)CO)c2)N1` (some centres unmarked) [Example 4], the EC50 came to 720 nM.

Consider `CCCCC1(CCCC)CS(=O)(=O)c2ccc(N(C)C)cc2C(c2cccc(NC(=O)[C@H](O)[C@@H](O)[C@H](O)[C@H](O)CO)c2)N1` (some centres unmarked) [Example 5], for which the EC50 worked out at 400 nM. With `CCCCC1(CCCC)CS(=O)(=O)c2ccc(N(C)C)cc2C(c2cccc(NC(=O)CCCCNC[C@H](O)[C@@H](O)[C@H](O)[C@H](O)CO)c2)N1` (some centres unmarked) [Example 7] the figure was 1400 nM. With `CCCC[C@]1(CC)CS(=O)(=O)c2cc(OC)c(OC)cc2[C@@H](c2ccccc2)N1` [Comparison Example 8, reference compound] the figure was 9800 nM. With `CCCCC1(CCCC)CS(=O)(=O)c2ccc(N(C)C)cc2C(c2cccc(NC(=O)[C@H](O)[C@@H](O)[C@H](O)[C@H](O)CO)c2)N1O` (some centres unmarked) [Example 6] the figure was 90 nM. As for `CCCCC1(CC)CS(=O)(=O)c2ccc(N(C)C)cc2C(c2cccc(NC(=O)CCCCNC[C@H](O)[C@@H](O)[C@H](O)[C@H](O)CO)c2)N1` (some centres unmarked) [Example 3], the EC50 turned out to be 220 nM.

As for `CCCCC1(CC)CS(=O)(=O)c2ccc(N(C)C)cc2C(c2cccc(NC(=O)[C@H](O)[C@@H](O)[C@H](O)[C@H](O)CO)c2)N1O` (some centres unmarked) [Example 2], the half-maximal effective concentration (EC50) was 150 nM.

As for `CCCCC1(CC)CS(=O)(=O)c2ccc(N(C)C)cc2C(c2cccc(NC(=O)[C@H](O)[C@@H](O)[C@H](O)[C@H](O)CO)c2)N1` (some centres unmarked) [Example 1], the EC50 was determined as 90 nM.
